In US12221494B2, “Short synthetic peptides and their uses for treating retinal degenerative diseases and/or tissue injuries” (MacKay Memorial Hospital, priority 2019, dated 2025):

Assays:
[1] = system: Sprague-Dawley rats, retinal ischemia/reperfusion (I/R) injury; assay: Immunofluorescence staining of retinal microglia/astrocytes 14 days after I/R injury; type: in vivo; conditions: rat
Description: Experimental procedures were approved by the Mackay Memorial Hospital Review Board (Taiwan, R.O.C.). All surgeries were performed under aseptic conditions. Adult 10-week-old male Sprague-Dawley rats (initial body weight=312±11 g) were anesthetized by an intraperitoneal injection of xylazine (10 mg/kg). Peptide was dissolved in 0.85% normal saline to 1 mM and delivered by the subconjunctival injection of 100 μL peptide through a 31-Gneedle with a micro-syringe before the induction of I/R. Normal saline was as a vehicle control. Rat I/R was performed after peptide or vehicle injection for 4 h. Pupils were dilated with 0.5% tropicamide and 0.5% phenylephrine. Body temperature was maintained at 37° C. using a heating blanket After dilation of the pupil, the anterior chamber of the right eye was cannulated with a 27-gauge needle connected to a physiological saline reservoir. The intraocular pressure (IOP) was raised to 110 mmHg by keeping the reservoir at 150 cm above the eye, and retinal ischemia was confirmed by observing whitening of the iris and the loss of the red reflex of the retina. After 90 min of ischemia, the cannulating needle was withdrawn and the IOP was returned to normal pressure, resulting in recovery of the blood supply from the retinal artery and reperfusion injury induced. The reperfusion was evident by the return of the red reflex. Corneal analgesia was achieved using 1 or 2 drops of 0.4% oxybuprocaine hydrochloride, and Ofloxacin ophthalmic gel (0.3%) was applied topically to the eye before and after the procedure. […]
Deparaffinized retinal sections were blocked with 10% goat serum and 5% bovine serum albumin (BSA) in PBS containing 0.5% TritonX-100 (PBST) for 20 min at room temperature for blocking nonspecific staining. […] The slides were then rinsed with PBST three times, mounted with FluorSave™ reagent (Calbiochem) and viewed with an epifluorescence microscope (Zeiss Axioplan 2 imaging; Zeiss, Oberkochen, Germany) Three sections per eye were averaged and the mean of six eyes was recorded as the representative value for each group.

[2] = system: Sprague-Dawley rats, retinal ischemia/reperfusion (I/R) injury; assay: Retinal vasculature analysis (acellular capillaries) 14 days after I/R injury; type: in vivo; conditions: rat
Description: Experimental procedures were approved by the Mackay Memorial Hospital Review Board (Taiwan, R.O.C.). All surgeries were performed under aseptic conditions. Adult 10-week-old male Sprague-Dawley rats (initial body weight=312±11 g) were anesthetized by an intraperitoneal injection of xylazine (10 mg/kg). Peptide was dissolved in 0.85% normal saline to 1 mM and delivered by the subconjunctival injection of 100 μL peptide through a 31-Gneedle with a micro-syringe before the induction of I/R. Normal saline was as a vehicle control. Rat I/R was performed after peptide or vehicle injection for 4 h. Pupils were dilated with 0.5% tropicamide and 0.5% phenylephrine. Body temperature was maintained at 37° C. using a heating blanket After dilation of the pupil, the anterior chamber of the right eye was cannulated with a 27-gauge needle connected to a physiological saline reservoir. The intraocular pressure (IOP) was raised to 110 mmHg by keeping the reservoir at 150 cm above the eye, and retinal ischemia was confirmed by observing whitening of the iris and the loss of the red reflex of the retina. After 90 min of ischemia, the cannulating needle was withdrawn and the IOP was returned to normal pressure, resulting in recovery of the blood supply from the retinal artery and reperfusion injury induced. The reperfusion was evident by the return of the red reflex. Corneal analgesia was achieved using 1 or 2 drops of 0.4% oxybuprocaine hydrochloride, and Ofloxacin ophthalmic gel (0.3%) was applied topically to the eye before and after the procedure. Only the right eye was used in all experiments. A sham procedure was performed at left eye served as an intra-animal control.
Rats (n=6 in each group) were euthanized using an overdose of pentobarbital at 14 days after I/R injury, the eyeballs were fixed with 4% PFA for overnight at 4° C. […] Ten sections per eye were averaged and the mean of six eyes was recorded as the representative value for each group.

IL-1β mRNA = assay: Hyperosmotic stress-induced IL-1β gene expression in rabbit corneal epithelial cells (qPCR); type: cell-based; conditions: 20 μM peptide 6 h, then hyperosmotic medium (463 mOsM) 3 h, solvent 4.5-fold
Description: Total RNA was extracted from cells using TRIzol (Invitrogen). Synthesis of cDNA was performed with 1 μg of total RNA at 50° C. for 50 min using oligo(dT) primers and reverse transcriptase (Superscript III; Invitrogen). Briefly, quantification of cDNA was performed in the LightCycler (Roche, Mannheim, Germany) using the DNA Master SYBR Green I kit (Roche) with the following cycling conditions: initial denaturation at 95° C. for 10 min, followed by 40 cycles at 95° C. for 10 s, 60° C. for 10 s, and 72° C. for 10 s and a 5-min terminal incubation at 72° C. The data were calculated with AACt. The expression was then normalized against the expression of glyceraldehyde-3-phosphate dehydrogenase (GAPDH). The PCR primers were mouse Survivin sense, 5′-[…]-3′ (SEQ ID NO: 27), anti-sense, 5′-[…]-3′ (SEQ ID NO: 28) (accession number: NM_001012273.1; PCR product: 136 bp); mouse GAPDH sense, 5′-[…]-3′ (SEQ ID NO: 29), anti-sense, 5′-[…]-3′ (SEQ ID NO: 30) (NM_001289726.1; 149 bp). For analysis rabbit inflammatory gene expression, The PCR primers were rabbit TNF-αsense, 5′-[…]-3′ (SEQ ID NO: 31), anti-sense, 5′-[…]-3′ (SEQ ID NO: 32) (accession number: NM 001082263.1); rabbit IL-1βsense, 5′-[…]-3′(SEQ ID NO: 33), anti-sense, 5′-[…]-3′ (SEQ ID NO: 34) (NM 001082201.1); rabbit GAPDH sense, 5′-[…]-3′ (SEQ ID NO: 35), anti-sense, 5′-[…]-3′ (SEQ ID NO: 36) (accession number:NM 001082253.1). The cycle threshold (Ct) values of the PCR product and a GAPDH (Glyceraldehyde 3-phosphate dehydrogenase) control mRNA were used to calculate relative quantities of mRNA.
Limbal stem epithelial cells (LSEC) were isolated from 6-month-old New Zealand white rabbits and continuously cultivated for 14 days byDMEM/F-12basalmedium based cell-suspension culture to achieve corneal-liked epithelial cell differentiation as previously described (Ho et al., Stem Cells. 2013; 31:1775). […] After 3 h, quantitative real-time PCR was used to estimate HOP-induced Tumor necrosis factor (TNF)-α and nterleukin-1 beta (IL-1β) expressions. […]

NH2-(D-Ser)-Leu-Gly-Ala-Glu-Gln-COOH (SLGAEQ; HELM PEPTIDE1{[dS].L.G.A.E.Q}$$$$V2.0; SMILES CC(C)C[C@H](NC(=O)[C@H](N)CO)C(=O)NCC(=O)N[C@@H](C)C(=O)N[C@@H](CCC(=O)O)C(=O)N[C@@H](CCC(N)=O)C(=O)O) [6-mer dS]
activation of Iba-1-positive microglial cells and GFAP-positive astrocytes, in words [1]: less prominent
Iba-1-positive Microglia ([1]; Control 3.3 ± 1.2, Vehicle + I/R 24.7 ± 1.6): 5.8 ± 1.0 /400 × field
GFAP-positive astrocytes ([1]; Control 6.9 ± 2.0, Vehicle + I/R 28.6 ± 2.2): 10.3 ± 1.8 /400 × field
number of degenerate capillaries, in words ([2]; 14 days after I/R injury): The number of degenerate capillaries was reduced
Number of acellilar capillaries ([2]; 14 days post-ischemia, Vehicle + I/R 7.2 ± 0.9): 2.3 ± 0.7 /mm^2
cytotoxic effect on retinal vasculature ([2]; sham testing in contralateral eye): had no cytotoxic effect on retinal vasculature
mRNA expression of IL-1β, in words (IL-1β mRNA): apparently repressed the mRNA expression of TNF-α and IL-1β
